In patent publication US20180105793A1, “DEVICE WITH MULTIPLE MICROENVIRONMENTS AND METHODS THEREOF” (WASHINGTON UNIVERSITY, priority 2016, published 2018):
“Also recorded” adds a separate entry of the source.

Legend:
[1] = tested on: MCF10A cells; assay: Immunofluorescent staining for E-cadherin (cell-cell junctions); format: cell-based, Human; conditions: 4 mM EGTA vs untreated
[2] = tested on: MCF10A cells; assay: Collective cell migration assay on modular polyacrylamide (mPA) dual-stiffness substrate; format: cell-based, Human
Method: Human mammary epithelial non-tumorigenic MCF10A cells were cultured in DMEM-F12 (GE Healthcare Life Sciences), supplemented with 5% horse serum (Invitrogen), 20 ng/mL epidermal growth factor (EGF, Miltenyi Biotec Inc), […] hydrocortisone (Sigma-Aldrich), 100 ng/mL cholera toxin (Sigma-Aldrich), 10 μg/mL insulin (Sigma-Aldrich), and 1% (v/v) penicillin-streptomycin (Sigma-Aldrich). Tumorigenic mammary epithelial MCF7 cells were grown in DMEM (Sigma-Aldrich) containing 10% fetal bovine serum (FBS), 1% (v/v) penicillin-streptomycin (Sigma-Aldrich), and 1% non-essential amino acids (0.1 mM). Human epidermoid carcinoma A431 cells were grown in DMEM (Sigma-Aldrich) containing 10% fetal bovine serum (FBS), 1% (v/v) penicillin-streptomycin (Sigma-Aldrich), 1% sodium pyruvate (Sigma-Aldrich), 1% sodium bicarbonate (Sigma-Aldrich), and 1% non-essential amino acids (0.1 mM). A PDMS stencil was designed and fabricated with a rectangular opening in the center, restricting the culture of epithelial monolayer within the central module (primary ECM) of mPA substrate (see e.g., FIG. 13A). PDMS stencils were air-dried, cleaned with 70% ethanol, and sterilized under UV light for 2 h. Afterwards, stencils were passivated overnight, with a sterile solution of 1% Pluronic and 1% Bovine serum albumin (BSA) in Phosphate buffered saline (PBS) to avoid cell adhesion, and carefully positioned on the PA gels. Cell suspension with 2×10^4 cells was dispensed into the PDMS reservoir covering the primary ECM region and left to grow for a prescribed duration of priming (1, 2, or 3 days) at 37° C. in a 5% CO2 humidified incubator. After this incubation period, the PDMS stencil was lifted off to allow cell sheet to migrate into the adjoining secondary ECM. Additional media was added to each well. For proliferation inhibition experiments, cells were treated with 2 mM thymidine (Sigma-Aldrich) after at least 6 h of cell seeding, to allow adequate attachment of cells to the substrate. For calcium chelation experiments, cells were incubated with 4 mM of EGTA (Sigma-Aldrich) after 3-day priming. […] Subsequently, coordinates of the leading edge were imported into a custom-made program in MATLAB and its advancement was calculated by averaging the distance of each point on the leading edge from the primary-secondary ECM interface. […] Cell migration tracks were subsequently analyzed to obtain migration speed and velocity angle distribution. Migration speed was calculated as a ratio between the sum of distances traveled by the cell between each time point and the total time. For each time interval, the angle between instantaneous velocity vector and the x axis was calculated and plotted the angle distribution for the entire migration tracking period.

Row | Structure (SMILES) | cell-cell communication / cell-cell junctions (E-cadherin images) [1] | memory-dependent migration of the leading edge ([2]; MCF10A monolayer, 4 mM EGTA after 3-day priming) | trend of mechanical memory-dependent migration ([2]; MCF10A monolayer, 2 mM thymidine (proliferation inhibition)) | cell migration speeds (leading edge) ([2]; MCF10A monolayer, 2 mM thymidine (proliferation inhibition), secondary ECM after priming, vs untreated cells) | cell spreading (spreading area of individual cells in the secondary ECM) ([2]; MCF10A, 2 mM thymidine, with vs without proliferation inhibition)
1 | O=C(O)CN(CCOCCOCCN(CC(=O)O)CC(=O)O)CC(=O)O [EGTA] | disrupts cell-cell communication; also recorded: dysfunctional cell-cell junctions | preserved | – | – | –
2 | Cc1cn([C@H]2C[C@H](O)[C@@H](CO)O2)c(=O)[nH]c1=O [thymidine] | – | – | held true | increased | increased spreading
